These results are taken from patent publication US20240299438A1, “METHOD FOR DIAGNOSIS AND TREATMENT OF AUTISM SPECTRUM DISORDER ON BASIS OF ACTIVITY REGULATION MECHANISM OF DORMANT NEURAL STEM CELL” (DONGGUK UNIVERSITY INDUSTRY-ACADEMIC COOPERATION FOUNDATION, priority 2021, published 2024).

One test relates to Shank3-deficient mice. The experiment in a line: Social interaction behavioral test (3 chambers) after drug injection. The test is classed as in vivo, mouse. The settings on record: for time participating in social stimuli: 3-chamber test; for social preference index (persistence of effect): followed for 28 days after injection. How it is done:
(§1) FIG. 5 (A) Immunostaining results of quiescent neural stem cells in the SVZ of control and Shank3 KO mice injected with saline, OICR-9429 (3 mg/kg, once/day, 3 days), romidepsin (0.25 mg/kg, once/day, 3 days), and clozapine (5 mg/kg, once/day, 3 days). The yellow arrows indicate GFAP+Sox2+Dlx2− qNSCs. Scale bar=20 μm. (B) Immunostaining results of quiescent neural stem cells in the DG of control and Shank3 KO mice injected with saline, OICR-9429 (3 mg/kg, once/day, 3 days), romidepsin (0.25 mg/kg, once/day, 3 days), and clozapine (5 mg/kg, once/day, 3 days). The yellow arrows indicate GFAP+Sox2+NeuN− qNSCs. Scale bar=20 μm. (C-E) Quantification results of FAP+Sox2+Id2+ (C) and GFAP+Sox2+Dlx2− (D) qNSCs in the SVZ and GFAP+Sox2+NeuN− (E) qNSCs in the DG. (F) Quantification results of BrdU+ NSCs in the SVZ injected with saline, OICR-9429, romidepsin, and clozapine. Control and Shank3 KO mice injected with each drug were injected intraperitoneally with a daily dose of BrdU (100 mg/kg/day). (G) Quantification results of DCX+ NPCs in the DG of control and Shank3 KO mice injected with each drug. (H) Immunofluorescence analysis of GFAP+,Sox2+,BrdU+ aNSCs in the SVZ of control and Shank3 KO mice injected with each drug. Scale bar=100 μm. (I) Quantification results of BrdU+ cells in the SVZ of saline- or OICR-9429-treated control and Shank3 mice at different time points after TMZ injection. (J) Analysis of protein expression levels of synaptic proteins and glutamate receptor subunits from control or Shank3 KO mice injected with saline or OICR-9429. (K) Results of representative heat maps showing the time spent in 3 chambers to assess the social interactions of control and Shank3 KO mice treated with saline, OICR-9429, romidepsin, clozapine, and VPA. (L-O) Social preference index percentages (Soc vs. NS ratio) in Shank3 KO mice injected with OICR-9429 (L), romidepsin (M), clozapine (N), and VPA (O) for 28 days.
In addition, to investigate the therapeutic effect of OICR-9429, a social interaction behavioral test was performed on Shank3-deficient mice injected with various neuropsychiatric drugs.

The subject of test [1] is quiescent neural stem cells in SVZ and DG of Shank3-deficient mice. The experiment in a line: Immunostaining quantification of qNSCs, BrdU+ NSCs and DCX+ cells after drug injection. The test is classed as in vivo, mouse. The conditions noted are these: for number of GFAP+,Sox2+,Dlx2− qNSCs / number of GFAP+,Sox2+,Id2+ qNSCs: 2 weeks after administration, OICR-9429 3 mg/kg, romidepsin 0.25 mg/kg, clozapine 5 mg/kg, once/day, 3 days. How it is done: as §1
To provide a drug-based therapeutic strategy for autism, Shank3-deficient mice were treated with OICR-9429, which is an antagonist inhibiting H3K4 trimethylation by KMT2A, and the effect was investigated. […] Similarly, OICR-9429 injection reduced the number of GFAP+,Sox2+,NeuN− qNSCs during hippocampal neurogenesis in Shank3-deficient mice (FIGS. 5B and 5E). […] Finally, as a result of treatment with OICR-9429, the number of DCX-positive neuroblasts increased in the brains of Shank3-deficient mice (FIG. 5G).

For test [2], the system named is qNSC activity in SVZ of Shank3-deficient mice. The experiment in a line: Recovery of BrdU-positive cells after temozolomide (TMZ) injection. The test is classed as in vivo, mouse. The conditions noted are these: after 7 days of TMZ injection, relative to control mice. How it is done: as §1, with “(J) Analysis of protein expression levels of synaptic proteins and glutamate receptor subunits from control or Shank3 KO mice injected with saline or OICR-9429. (K) Results of representative heat maps showing the time spent in 3 chambers to assess the social interactions of control and Shank3 KO mice treated with saline, OICR-9429, romidepsin, clozapine, and VPA. (L-O) Social preference index percentages (Soc vs. NS ratio) in Shank3 KO mice injected with OICR-9429 (L), romidepsin (M), clozapine (N), and VPA (O) for 28 days.” left out

Test [3] relates to Homer1, SAPAP3, GluR1, GluR2, NR2A, NR2B. As to the kind of experiment: Protein expression levels of synaptic proteins and glutamate receptor subunits in mice. In kind it is in vivo, mouse. The conditions noted are these: Shank3-deficient mice. How it is done: as §1, with “(J) Analysis of protein expression levels of synaptic proteins and glutamate receptor subunits from control or Shank3 KO mice injected with saline or OICR-9429. (K) Results of representative heat maps showing the time spent in 3 chambers to assess the social interactions of control and Shank3 KO mice treated with saline, OICR-9429, romidepsin, clozapine, and VPA. (L-O) Social preference index percentages (Soc vs. NS ratio) in Shank3 KO mice injected with OICR-9429 (L), romidepsin (M), clozapine (N), and VPA (O) for 28 days.” left out

Test [4] concerns SHANK3-deficient human radial glia cells. The experiment in a line: Immunofluorescence of SHANK3-deficient human iPSC-derived neural stem (radial glia) cells. The settings on record: five days after treatment. In kind it is cell-based. The text has this: FIG. 6 (A) Immunostaining results of GFAP+,SOX2+,ID2+ and GFAP+,SOX2+,NESTIN+ quiescent neural stem cells (radical glia cell, RGCs) from control or SHANK3-deficient iPSCs. White arrows indicate human RGCs. Scale bar=20 μm. (B) Quantification results of GFAP+,SOX2+,I D2+ RGCs with radial morphology. (C) Quantification results of GFAP+,SOX2+,NESTIN+ RGCs with radial morphology. (D) Immunostaining of GFAP+,SOX2+,EGFR+ aNSC and K167+ proliferating cells. Scale bar=20 μm. (E) Quantification results of GFAP+,SOX2+,EGFR+ aNSCs from control or SHANK3-deficient RGCs. (F) Quantification results of K167+ proliferating cells from control or SHANK3-deficient RGCs. (G) Immunofluorescence analysis of GFAP+,SOX2+,NESTIN+ RGCs from control or SHANK3-deficient NSCs treated with KMT2A-shRNA. The white arrow indicates cells with radial morphology. Scale bar=20 μm. (H) Quantification results of the number of GFAP+,SOX2+,NESTIN+ RGCs with radial morphology and GFAP+,SOX2+,NESTIN+ RGCs with nonradial morphology treated with KMT2A-shRNA. […]
The molecular mechanisms underlying the autism phenotypes associated with SHANK3 deficiency in human iPSC-derived neural differentiation were investigated. […] Additionally, it was analyzed whether or not SHANK3-deficient human radial glia cells are pharmacologically treated by OICR-9429.

The subject of test [5] is HOMER1, SAPAP3, GluR1, NR2A. As to the kind of experiment: Western blot of synaptic proteins and glutamate receptor subunits in SHANK3-deficient human cultures. The test is classed as cell-based.

In the case of `CCCC(CCC)C(=O)O` [VPA], in the test with Shank3-deficient mice, the “time participating in social stimuli” value is “no significant effect” and the “social preference index (persistence of effect)” value is on record as “did not improve”.

On to `CN1CCN(C2=Nc3cc(Cl)ccc3Nc3ccccc32)CC1` [clozapine], for which, in test [1] (SVZ, Shank3-deficient mice), the “number of GFAP+,Sox2+,Dlx2− qNSCs” value was “no effect” and the “number of GFAP+,Sox2+,Id2+ qNSCs” value is given as “no effect”. Further, the “time participating in social stimuli” value in the test on Shank3-deficient mice is given as “no significant effect”.

`C/C=C1\NC(=O)[C@H]2CSSCC/C=C/[C@H](CC(=O)N[C@H](C(C)C)C(=O)N2)OC(=O)[C@H](C(C)C)NC1=O` [romidepsin]: in test [1] (SVZ, Shank3-deficient mice), the “number of GFAP+,Sox2+,Dlx2− qNSCs” value is given as “no effect” and the “number of GFAP+,Sox2+,Id2+ qNSCs” value was “no effect”. Besides, in the test with Shank3-deficient mice, the “time participating in social stimuli” value was “no significant effect”.

Turning to `CN1CCN(c2ccc(-c3cccc(CN4CCOCC4)c3)cc2NC(=O)c2c[nH]c(=O)cc2C(F)(F)F)CC1` [OICR-9429], in test [1] (SVZ, Shank3-deficient mice), the “number of rapidly dividing cells labeled with BrdU” value is “greatly increased”, the “number of GFAP+,Sox2+,Dlx2− qNSCs” value was “significantly decreased” and the “number of GFAP+,Sox2+,Id2+ qNSCs” value was “significantly decreased”. Further, the “number of DCX-positive neuroblasts” value in test [1] (brains (DG) of Shank3-deficient mice) is on record as “increased”. Also, the “number of GFAP+,Sox2+,NeuN− qNSCs” value in test [1] (hippocampal neurogenesis (DG), Shank3-deficient mice) is listed as “reduced”. Also, the “BrdU-positive cells after TMZ injection” value in test [2] is recorded as “significantly recovered”. Further, the “expression of synaptic proteins Homer1 and SAPAP3 and glutamate receptor subunits GluR1, GluR2, NR2A, and NR2B” value in test [3] is reported as “significantly restored”. In the test with Shank3-deficient mice, the “time participating in social stimuli” value is “significantly more time” and the “social preference index (persistence of effect)” value is recorded as “gradually improved up to 3 weeks after injection”. Also, the “proportion of GFAP+,SOX2+,NESTIN+ radial glia cells with non-radial morphology” value in test [4] (SHANK3-deficient neural stem cells) is “significant decrease”. In addition, in test [4] (SHANK3-deficient radial glia cells), the “proportion of GFAP+,SOX2+,NESTIN+ radial glia cells with radial morphology” value is reported as “decreased”. Moreover, the “expression levels of synaptic proteins HOMER1 and SAPAP3 and glutamate receptor subunits GluR1 and NR2A” value in test [5] is listed as “greatly increased”.
